The target of assay [1] is 5-hydroxytryptamine receptor 2A (Homo sapiens, UniProt P28223). It is filed as functional, cell-based.
Assay [2] concerns the target T1, Alpha-1A adrenergic receptor (Homo sapiens, UniProt P35348).
T1 sequence (P35348 whole entry): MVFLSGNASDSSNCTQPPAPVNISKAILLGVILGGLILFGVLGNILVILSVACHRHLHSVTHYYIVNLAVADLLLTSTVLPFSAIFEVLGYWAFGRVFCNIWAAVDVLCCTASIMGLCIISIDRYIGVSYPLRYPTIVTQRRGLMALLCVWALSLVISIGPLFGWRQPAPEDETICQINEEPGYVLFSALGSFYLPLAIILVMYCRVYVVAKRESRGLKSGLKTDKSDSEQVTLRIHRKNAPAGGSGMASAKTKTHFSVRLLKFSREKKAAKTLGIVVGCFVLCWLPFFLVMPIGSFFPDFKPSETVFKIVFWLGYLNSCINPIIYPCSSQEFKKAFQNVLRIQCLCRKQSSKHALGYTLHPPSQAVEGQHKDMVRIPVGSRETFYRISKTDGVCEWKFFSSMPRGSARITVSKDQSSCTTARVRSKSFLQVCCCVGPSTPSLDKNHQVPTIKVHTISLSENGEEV
It counts as functional, cell-based.

Assay [3] addresses T2, Amine oxidase [flavin-containing] A (Homo sapiens, UniProt P21397).
T2 sequence (P21397 whole entry): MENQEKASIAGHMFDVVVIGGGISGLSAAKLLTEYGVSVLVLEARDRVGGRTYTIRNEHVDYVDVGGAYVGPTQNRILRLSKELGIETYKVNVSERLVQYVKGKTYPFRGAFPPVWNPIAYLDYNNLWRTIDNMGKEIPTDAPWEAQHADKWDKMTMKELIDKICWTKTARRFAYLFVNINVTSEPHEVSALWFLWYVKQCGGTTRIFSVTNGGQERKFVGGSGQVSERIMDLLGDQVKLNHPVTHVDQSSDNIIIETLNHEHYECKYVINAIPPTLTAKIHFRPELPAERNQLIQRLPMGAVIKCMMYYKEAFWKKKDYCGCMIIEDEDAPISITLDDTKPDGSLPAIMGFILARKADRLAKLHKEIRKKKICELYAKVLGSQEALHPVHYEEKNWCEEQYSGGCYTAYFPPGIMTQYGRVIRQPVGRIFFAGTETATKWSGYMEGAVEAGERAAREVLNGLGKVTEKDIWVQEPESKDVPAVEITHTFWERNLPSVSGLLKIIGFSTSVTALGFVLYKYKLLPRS
It counts as functional.

Assay [4] has as its target Mu-type opioid receptor (Homo sapiens, UniProt P35372). The assay is described as follows: biochemical. It is filed as functional.
Assay [5] has as its target Neuronal acetylcholine receptor subunit alpha-4 (Homo sapiens, UniProt P43681).
Assay [6] addresses T3, Endothelin-1 receptor (Homo sapiens, UniProt P25101).
T3 sequence (P25101 whole entry): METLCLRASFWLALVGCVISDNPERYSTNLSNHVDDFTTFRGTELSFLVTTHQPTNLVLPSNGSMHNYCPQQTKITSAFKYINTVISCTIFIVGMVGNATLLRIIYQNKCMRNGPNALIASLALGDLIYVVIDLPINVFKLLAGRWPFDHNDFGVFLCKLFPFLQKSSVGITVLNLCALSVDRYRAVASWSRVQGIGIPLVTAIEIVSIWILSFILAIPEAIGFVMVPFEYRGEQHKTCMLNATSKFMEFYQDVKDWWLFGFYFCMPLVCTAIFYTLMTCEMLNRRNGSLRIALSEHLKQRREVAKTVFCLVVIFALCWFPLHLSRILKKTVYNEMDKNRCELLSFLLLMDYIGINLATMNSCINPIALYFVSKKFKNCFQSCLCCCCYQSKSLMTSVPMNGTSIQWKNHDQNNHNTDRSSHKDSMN

The target of assay [7] is Sodium-dependent dopamine transporter (Homo sapiens, UniProt Q01959).
The target in assay [8] is T4, Neuropeptide Y receptor type 1 (Homo sapiens, UniProt P25929).
T4 sequence (P25929 whole entry): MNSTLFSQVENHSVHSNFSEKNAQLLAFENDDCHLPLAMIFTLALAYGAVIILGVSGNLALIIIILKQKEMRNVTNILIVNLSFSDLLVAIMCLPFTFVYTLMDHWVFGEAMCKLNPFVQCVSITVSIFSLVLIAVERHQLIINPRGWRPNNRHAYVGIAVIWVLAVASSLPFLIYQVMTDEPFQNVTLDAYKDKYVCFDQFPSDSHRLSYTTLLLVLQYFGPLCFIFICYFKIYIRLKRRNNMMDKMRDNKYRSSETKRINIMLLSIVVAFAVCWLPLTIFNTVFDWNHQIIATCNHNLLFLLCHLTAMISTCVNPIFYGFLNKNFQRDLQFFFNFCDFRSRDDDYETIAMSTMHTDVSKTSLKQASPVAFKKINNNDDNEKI

The target in assay [9] is T1, Alpha-1A adrenergic receptor. It counts as functional, cell-based. This is another data set of the same source.
For assay [10], the target named is Kappa-type opioid receptor (Homo sapiens, UniProt P41145).
Assay [11] has as its target Histamine H1 receptor (Homo sapiens, UniProt P35367).

One may read the AC50 as the midpoint of the concentration-response curve, whichever way the signal moves. Lower therefore signals activity at low concentration.

Where a SMILES comes first, the peptide text is derived from it. [ ]: non-standard residue; d: D form. pGlu = O=C1CC[C@@H](C(=O)O)N1; Thz = O=C(O)[C@@H]1CSCN1 A value given as a limit tells only on which side of the number the result lay.
Further: assay procedure not described here.

Chain of 5-hydroxytryptamine receptor 2A (P28223 whole entry): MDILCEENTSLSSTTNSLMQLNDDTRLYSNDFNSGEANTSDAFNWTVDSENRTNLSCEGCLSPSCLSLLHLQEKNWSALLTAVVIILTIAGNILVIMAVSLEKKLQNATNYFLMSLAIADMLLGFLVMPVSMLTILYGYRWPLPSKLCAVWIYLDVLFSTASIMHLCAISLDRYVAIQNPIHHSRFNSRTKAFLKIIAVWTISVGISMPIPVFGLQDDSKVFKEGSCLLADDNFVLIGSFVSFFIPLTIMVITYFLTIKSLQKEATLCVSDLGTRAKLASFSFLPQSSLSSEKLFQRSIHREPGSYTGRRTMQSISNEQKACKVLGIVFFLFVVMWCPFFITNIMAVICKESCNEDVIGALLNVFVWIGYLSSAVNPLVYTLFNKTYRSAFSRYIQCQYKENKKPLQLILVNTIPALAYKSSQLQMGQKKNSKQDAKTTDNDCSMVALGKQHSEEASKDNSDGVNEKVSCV
Chain of Histamine H1 receptor (P35367 whole entry): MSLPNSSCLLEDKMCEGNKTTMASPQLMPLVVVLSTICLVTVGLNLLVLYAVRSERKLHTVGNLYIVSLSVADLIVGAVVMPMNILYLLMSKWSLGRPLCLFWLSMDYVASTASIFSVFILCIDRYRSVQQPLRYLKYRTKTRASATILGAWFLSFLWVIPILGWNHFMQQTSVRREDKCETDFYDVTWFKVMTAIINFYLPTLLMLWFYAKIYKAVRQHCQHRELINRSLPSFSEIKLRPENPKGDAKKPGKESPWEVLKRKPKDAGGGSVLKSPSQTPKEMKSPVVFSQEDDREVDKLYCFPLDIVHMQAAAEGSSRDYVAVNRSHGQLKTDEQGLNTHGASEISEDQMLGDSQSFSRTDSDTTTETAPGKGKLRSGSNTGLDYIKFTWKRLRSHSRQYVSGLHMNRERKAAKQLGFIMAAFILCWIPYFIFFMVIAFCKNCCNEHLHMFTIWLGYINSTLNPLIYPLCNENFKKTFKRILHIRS
Chain of Mu-type opioid receptor (P35372 whole entry): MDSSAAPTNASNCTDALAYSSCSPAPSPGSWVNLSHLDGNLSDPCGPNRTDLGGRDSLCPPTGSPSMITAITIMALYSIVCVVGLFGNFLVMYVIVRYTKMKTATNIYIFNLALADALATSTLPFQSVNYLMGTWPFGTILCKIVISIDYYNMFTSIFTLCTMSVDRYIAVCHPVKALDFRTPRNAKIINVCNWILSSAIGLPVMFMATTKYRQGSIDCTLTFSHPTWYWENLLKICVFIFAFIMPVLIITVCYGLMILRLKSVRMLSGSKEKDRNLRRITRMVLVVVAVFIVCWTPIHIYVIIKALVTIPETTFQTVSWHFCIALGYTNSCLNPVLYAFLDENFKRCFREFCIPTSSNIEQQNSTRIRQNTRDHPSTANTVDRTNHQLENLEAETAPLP
Chain of Neuronal acetylcholine receptor subunit alpha-4 (P43681 whole entry): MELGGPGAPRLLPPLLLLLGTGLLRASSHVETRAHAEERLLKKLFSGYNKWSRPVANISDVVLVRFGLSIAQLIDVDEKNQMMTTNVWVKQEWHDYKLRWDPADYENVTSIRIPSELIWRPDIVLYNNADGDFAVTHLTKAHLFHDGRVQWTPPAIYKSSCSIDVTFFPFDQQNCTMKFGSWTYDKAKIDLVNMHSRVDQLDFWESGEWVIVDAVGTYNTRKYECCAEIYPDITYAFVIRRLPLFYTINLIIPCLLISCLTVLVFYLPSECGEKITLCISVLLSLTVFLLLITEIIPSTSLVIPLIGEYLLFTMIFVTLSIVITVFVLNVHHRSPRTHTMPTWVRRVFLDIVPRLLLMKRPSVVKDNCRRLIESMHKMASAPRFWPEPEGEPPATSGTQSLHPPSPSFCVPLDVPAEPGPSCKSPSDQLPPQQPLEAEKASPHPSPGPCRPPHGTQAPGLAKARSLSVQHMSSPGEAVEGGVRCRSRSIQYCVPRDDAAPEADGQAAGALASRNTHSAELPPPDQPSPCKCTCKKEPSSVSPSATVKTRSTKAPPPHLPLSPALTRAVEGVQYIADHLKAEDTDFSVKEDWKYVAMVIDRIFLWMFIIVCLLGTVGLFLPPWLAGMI
Chain of Sodium-dependent dopamine transporter (Q01959 whole entry): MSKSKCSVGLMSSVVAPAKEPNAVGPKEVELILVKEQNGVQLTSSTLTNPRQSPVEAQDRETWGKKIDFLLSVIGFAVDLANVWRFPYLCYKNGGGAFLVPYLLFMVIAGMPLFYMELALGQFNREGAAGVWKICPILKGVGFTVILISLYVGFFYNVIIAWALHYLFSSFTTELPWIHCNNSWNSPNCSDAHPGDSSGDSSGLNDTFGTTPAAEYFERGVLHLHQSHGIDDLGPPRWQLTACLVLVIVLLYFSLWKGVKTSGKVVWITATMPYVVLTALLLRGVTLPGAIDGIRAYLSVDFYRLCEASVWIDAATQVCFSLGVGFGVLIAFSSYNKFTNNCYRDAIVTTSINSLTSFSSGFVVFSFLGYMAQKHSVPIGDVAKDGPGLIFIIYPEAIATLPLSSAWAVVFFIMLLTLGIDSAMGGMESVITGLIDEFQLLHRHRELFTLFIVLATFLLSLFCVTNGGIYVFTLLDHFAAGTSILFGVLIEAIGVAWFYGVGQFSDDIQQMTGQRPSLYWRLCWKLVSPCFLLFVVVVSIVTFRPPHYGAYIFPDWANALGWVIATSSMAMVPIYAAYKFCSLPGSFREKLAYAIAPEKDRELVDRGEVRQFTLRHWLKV
Chain of Kappa-type opioid receptor (P41145 whole entry): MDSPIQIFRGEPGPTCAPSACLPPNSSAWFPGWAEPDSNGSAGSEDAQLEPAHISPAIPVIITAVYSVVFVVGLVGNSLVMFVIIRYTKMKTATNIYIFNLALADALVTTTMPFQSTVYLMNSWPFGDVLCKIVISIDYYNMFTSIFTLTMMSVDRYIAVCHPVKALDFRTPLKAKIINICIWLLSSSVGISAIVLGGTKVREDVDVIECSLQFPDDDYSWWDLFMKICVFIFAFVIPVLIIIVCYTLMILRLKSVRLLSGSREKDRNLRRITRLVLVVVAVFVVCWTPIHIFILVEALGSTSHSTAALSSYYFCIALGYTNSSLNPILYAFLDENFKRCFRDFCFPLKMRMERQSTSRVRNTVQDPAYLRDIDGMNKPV

For `Oc1cc(O)c(Cl)cn1`, the half-maximal activity concentration (AC50) was greater than 30 µM in [1]; 26 µM in [2]; greater than 30 µM in [3]; greater than 30 µM in assay [4]; greater than 30 µM in assay [5]; greater than 30 µM in [6]. Besides, the AC50 in assay [7], in [8], in assay [9], in [10] and in [11] was greater than 30 µM throughout.
In the case of `CCc1cc2c(s1)-n1c(C)nnc1CN=C2c1ccccc1Cl` [ETIZOLAM], the AC50 in [1], in assay [2], in [3], in [4], in [5] and in assay [6] was greater than 30 µM in each case. Also, the half-maximal activity concentration (AC50) in assay [7] is greater than 30 µM; in assay [8], greater than 30 µM; in assay [9], greater than 30 µM; in [10], 2.5 µM; in [11], greater than 30 µM.
For the compound `OC[C@H]1O[C@@H](Oc2cc(O)cc(/C=C/c3ccc(O)cc3)c2)[C@H](O)[C@@H](O)[C@@H]1O` [PICEID], the AC50 in [1] was greater than 30 µM; in assay [2] it was 19 µM; in assay [3], greater than 30 µM; in assay [4] it was greater than 30 µM; in assay [5], greater than 30 µM; in assay [6], greater than 30 µM. Moreover, the concentration at half-maximal activity (AC50) in assay [7], in [8], in assay [9], in [10] and in assay [11] was greater than 30 µM in each case.
Turning to `O=C1CC[C@@H](C(=O)N2CSC[C@H]2C(=O)O)N1` [PIDOTIMOD] ([pGlu]-[Thz]-OH), the AC50 in [1], in [2], in assay [3], in assay [4], in assay [5] and in [6] was greater than 30 µM in each case. Further, the AC50 in assay [7], in assay [8], in [9], in assay [10] and in assay [11] was greater than 30 µM throughout.
For the compound `CCC(NC(C)C)C(O)c1ccc(O)c2[nH]c(=O)ccc12` (configuration not stated) [PROCATEROL], the AC50 in assay [1], in assay [2], in assay [3], in [4], in [5] and in assay [6] was greater than 30 µM in each case. For the same compound, the concentration at half-maximal activity (AC50) in assay [7], in assay [8], in assay [9], in assay [10] and in assay [11] was greater than 30 µM in each case.
For the compound `CCCN1CCCC[C@H]1C(=O)Nc1c(C)cccc1C` [ROPIVACAINE], the AC50 in assay [1], in [2], in assay [3], in assay [4], in assay [5] and in assay [6] was greater than 30 µM throughout. Besides, the AC50 in assay [7], in assay [8], in assay [9], in assay [10] and in [11] was greater than 30 µM throughout.
Turning to `CC(C(=O)O)c1ccc2c(c1)CC(=O)c1ccccc1S2` (configuration not stated) [ZALTOPROFEN], the AC50 in assay [1], in assay [2], in [3], in assay [4], in assay [5] and in [6] was greater than 30 µM in each case. In addition, the AC50 in [7] is greater than 30 µM; in assay [8], greater than 30 µM; in assay [9], greater than 30 µM; in assay [10], 24 µM; in assay [11] it was greater than 30 µM.

Source of the values: ChEMBL document CHEMBL5291721, “A preclinical secondary pharmacology resource illuminates target-adverse drug reaction associations of marketed drugs” (Nat Commun, 2023).
